For one data set, the system named is Salmonella. In words: Salmonella growth assay (MIC). In kind it is cell-based, Salmonella enterica serovar Typhimurium strain SL1344. The conditions noted are these: for Antibacterial activity (MIC): ASO conjugated to the KFF carrier peptide, ~10^5 cfu/mL in noncation-adjusted MHB, 37°C, OD600, highest concentration 10 µM; for Antibacterial activity (MIC) / Effect of KFF-ASO conjugates on Salmonella growth (in words): 24 h; for Effect of KFF-ASO conjugates on Salmonella growth (in words): up to 10 µM; for Effect of KFF-ASO conjugates on Salmonella growth (in words) / Bactericidal concentration: KFF conjugates; for Bactericidal concentration: spotting of ASO-treated bacterial samples at 24 h. Here is the method:
Next, we sought to compare the antibacterial efficacy of the ASOs upon delivery into bacterial cells with a KFF carrier peptide. Therefore, we measured the growth kinetics of Salmonella in the presence of the ASOs for 24 h (Fig. 4). Because we have previously shown that the KFF peptide has a minimum inhibitory concentration (MIC) of >10 µM ([Popella et al. 2021]), we choose 10 µM as a cutoff point in our experiments. […] Spotting of the ASO-treated bacterial samples at 24 h confirmed that PMO and PNA were bactericidal at 10 and 1.25 µM, respectively (Supplemental Fig. S6B).
An overnight bacterial cell culture was diluted 1:100 in fresh MHB and grown to OD600 0.5. The culture was then diluted to ∼10^5 cfu/mL in noncation-adjusted MHB. Subsequently, 190 µL bacterial solution was dispensed into a 96-well plate (Thermo Fisher Scientific) along with 10 µL of a 200 µM solution of the ASOs. Growth was monitored by measuring the OD at 600 nm every 20 min in a Synergy H1 plate reader (Biotek) with continuous double-orbital shaking (237 cpm) at 37°C for 24 h.

For data set [1], the system named is 5′ Cy5-labeled acpP target RNA (40 nt). The data set is described as follows: Electrophoretic mobility shift assay (EMSA). The arrangement: key to mRNA hybridization (EMSA): +++: Effect strength is represented by additional (+) signs.; ++: Effect strength is represented by additional (+) signs.; Effect strength is represented by additional (+) signs. In kind it is binding, Salmonella. Conditions: unconjugated ASO, ASO:RNA 0.3:1 to 2.5:1; for Shift of target mRNA in EMSA (in words): 30 min RT, 15% native PAA gel; for mRNA hybridization (EMSA): summary grade. Here is the method:
To compare the ability of the unconjugated ASOs to hybridize to the target transcript, we used electrophoretic mobility shift assays (EMSAs), thermal UV melting curves, and microscale thermophoresis (MST). We first conducted EMSAs using a 40 nt target RNA sequence (nt −20 to +20 relative to the acpP translational start codon), which was 5′-labeled with a Cy5 dye. Sequence-specific ASOs were added at defined ASO:RNA ratios, while water or a scrambled PNA (PNAscr) were used as negative controls. We performed these binding studies with unconjugated ASOs, because the KFF carrier peptide is cleaved during transport into the bacterial cytoplasm ([Yavari et al. 2021]). […] The DNA-PTO modification is known to reduce the binding affinity of the ASO to its target RNA ([Chan et al. 2006]), and a 10mer might be too short to mediate interactions under our experimental conditions. To test if an excess of unspecific RNA impacts target binding, we also included samples that contained 1 μg yeast tRNA.
The EMSA was performed with a Cy5 5′-labeled RNA (purchased from Eurofins) encompassing the sequence spanning nucleotides −20 to +20 of acpP relative to the translation start codon. For annealing, TM buffer (10 mM Tris-HCl, 50 mM MgCl2) was used. First, 20 µM RNA was denatured by incubation at 95°C for 5 min followed by placement on ice. Then 1 µL of RNA (spiked with or without 1 µL of yeast tRNA [Ambion at a concentration of 10 mg/mL]) was added to PCR tubes containing 8 µL of water. To this, 1 µL of ASOs at the indicated concentrations (6.25–50 µM) was added to adjust ASO:RNA ratios of 0.3:1 to 2.5:1. As negative control, water was added instead of ASO, while a PNAscr sequence served as sequence-unspecific negative control (Fig. 2; Supplemental Fig. S2). These mixtures were incubated for 30 min at room temperature (RT), followed by the addition of 10 µL 2× gel loading (GL) buffer for subsequent loading on native 15% PAA RNA gel without urea (20 µL/sample; 6 µL of a 50 bp DNA marker + 14 µL 1× GL). The gel was run at 100–120 V for 2–3 h, concomitantly stained with SYBR gold (Thermo Fisher Scientific) for 15 min and imaged on Geldoc (Isogen Life Science B.V.).

The subject of data set [2] is Cy5 5′-labeled acpP target RNA (40 nt, −20 to +20). In words: Microscale thermophoresis (MST) binding affinity. Details: species or system Salmonella. Conditions: for EC50 of binding to target mRNA by MST (in words): unconjugated ASO; for EC50: read-out: mRNA-binding affinity (EC50). The text has this: To further quantify the binding affinities of the ASOs to the target mRNA, we used MST, a sensitive technique that measures a temperature-induced change in the fluorescence of a substrate as a function of the concentration of a nonfluorescent ligand ([Moon et al. 2018]; [Zimmer et al. 2021]). MST allowed us to quantify target affinity by calculating EC50 values, the half maximal effective concentration of binding to target mRNA (Table 1; Supplemental Fig. S4). […] Both are known to adopt C3′-endo ribose pucker conformation, which enhances their binding affinity to target mRNA ([Julien et al. 2008]; [Pallan et al. 2012]).
For each binding experiment, Cy5 5′-labeled RNA (as described above) was diluted to 10 nM in buffer A (50 mM Tris-HCl pH 7.6, 250 mM KCl, 5 mM MgCl2, 1 mM DTT, 5% glycerol supplemented with 0.05% Tween 20). A series of 16 tubes with different ASO dilutions (500–0.015 nM) were prepared in buffer A. For measurements, each ASO dilution was mixed with one volume of labeled RNA, which led to a final concentration of 5 nM labeled RNA and 250–0.007 nM of ASOs. The reaction was mixed by pipetting and incubated for 30 min at RT in the dark. Capillary forces were used to load the samples into Monolith NT.115 Premium Capillaries; measurements were performed using a Monolith Pico instrument (NanoTemper Technologies Gmbh) at an ambient temperature of 25°C. Instrument parameters were adjusted to 5% LED power, medium MST power, and MST on-time of 2.5 s. An initial fluorescence scan was performed across the capillaries to determine sample quality, which was followed by 16 thermophoresis measurements. […] Data of two independent measurements were analyzed for the ΔFnorm value determined by the MO Affinity Analysis software (NanoTemper Technologies Gmbh). The fitting for EC50 values was done using the Hill equation within the MO Affinity Analysis software. Data are presented as the mean EC50 values of two independent experiments.
On the technique in general: In MST a laser heats a spot of the sample, and binding alters the fluorescence response.

The mark [3] stands for this setting: unconjugated ASO 250-0.007 nM, 5 nM Cy5 RNA, 50 mM Tris-HCl pH 7.6, 250 mM KCl, 5 mM MgCl2, 30 min RT, 25°C, Hill fit, mean ± SD, two independent experiments.

“DNA-PTO: phosphorothioate-modified DNA 10mer ASO, sequence CTCATACTCT, targeting acpP −5 to +5 (DNA, all phosphorothioate, methylation of C not given here)”: in the data set with Salmonella, the “Antibacterial activity (MIC)” value is listed as above 10 µM; the “Effect of KFF-ASO conjugates on Salmonella growth (in words)” value (“Effect of KFF-ASO conjugates” for short) was “slight growth retardation was observed at 5 and 10 µM”. In addition, in data set [1], the “Shift of target mRNA in EMSA (in words)” value is “did not interact with the target mRNA at any of the concentrations tested”. In addition, the “mRNA-binding affinity (EC50)” value in data set [2] (setting [3]) was “Could not be determined”.
What is called EC50 is the concentration that produces a half-maximal response. For the substance “LNA: 2′–4′-locked RNA 10mer ASO, sequence CTCATACTCT, targeting acpP −5 to +5 (all LNA, backbone and methylation of C not given here)”, in the data set on Salmonella, the “Antibacterial activity (MIC)” value is recorded as above 10 µM; the “Effect of KFF-ASO conjugates” value is “slight growth retardation was observed at 5 and 10 µM”. In data set [1], the “Shift of target mRNA in EMSA (in words)” value was “concentration-dependent shift of the target mRNA, starting at a 0.3:1 ratio of ASO:RNA” and the “mRNA hybridization (EMSA)” value was “+++”. Moreover, the “EC50 of binding to target mRNA by MST (in words)” value (shortened to “EC50 of binding to target mRNA”) in data set [2] was “upper picomolar range”. Also, the EC50 in data set [2] (setting [3]) was 0.3 ± 0.1 nM.
For the substance “PMO: phosphorodiamidate morpholino 10mer ASO, sequence CTCATACTCT, targeting acpP −5 to +5 (all phosphorodiamidate morpholino (PMO))”, in the data set with Salmonella, the “Antibacterial activity (MIC)” value turned out to be 10 µM and the Bactericidal concentration worked out at 10 µM. In data set [1], the “Shift of target mRNA in EMSA (in words)” value is given as “limited binding even at 2.5× excess” and the “mRNA hybridization (EMSA)” value is “+”. For the same substance, the “EC50 of binding to target mRNA” value in data set [2] is listed as “lower-mid nanomolar range”. Also, in data set [2] (setting [3]), the EC50 was found to be 5.9 ± 2.7 nM.
Consider “PNA: peptide nucleic acid 10mer ASO, sequence CTCATACTCT, targeting acpP −5 to +5 (all peptide nucleic acid (PNA))”, for which, in the data set on Salmonella, the “Antibacterial activity (MIC)” value is reported as 1.25 µM and the Bactericidal concentration came to 1.25 µM. Also, in data set [1], the “Shift of target mRNA in EMSA (in words)” value is “concentration-dependent shift of the target mRNA, starting at a 0.3:1 ratio of ASO:RNA” and the “mRNA hybridization (EMSA)” value is on record as “+++”. Further, the “EC50 of binding to target mRNA” value in data set [2] was “upper picomolar range”. Further, the concentration giving a half-maximal response (EC50) in data set [2] (setting [3]) came to 0.4 ± 0.4 nM.
On to “RNA-F: 2′-fluorinated RNA 10mer ASO, sequence CTCATACTCT, targeting acpP −5 to +5 (all 2'-fluoro, backbone and T or U not given here)”, for which, in the data set with Salmonella, the “Antibacterial activity (MIC)” value was above 10 µM; the “Effect of KFF-ASO conjugates” value was “slight growth retardation was observed at 5 and 10 µM”. In addition, in data set [1], the “Shift of target mRNA in EMSA (in words)” value is recorded as “concentration-dependent shift of the target mRNA, starting at a 0.3:1 ratio of ASO:RNA” and the “mRNA hybridization (EMSA)” value is reported as “++”. Besides, the “EC50 of binding to target mRNA” value in data set [2] is “lower-mid nanomolar range”. Further, in data set [2] (setting [3]), the EC50 came out at 72.8 ± 36.2 nM.
On to “RNA-MOE: 2′-methoxyethylated RNA 10mer ASO, sequence CTCATACTCT, targeting acpP −5 to +5 (all 2'-MOE, backbone and methylation of C not given here)”, for which, in the data set with Salmonella, the “Antibacterial activity (MIC)” value is above 10 µM; the “Effect of KFF-ASO conjugates” value is “slight growth retardation was observed at 5 and 10 µM”. In data set [1], the “Shift of target mRNA in EMSA (in words)” value was “concentration-dependent shift of the target mRNA, starting at a 0.3:1 ratio of ASO:RNA” and the “mRNA hybridization (EMSA)” value is “++”. In data set [2], the “EC50 of binding to target mRNA” value is on record as “upper picomolar range”. Moreover, the EC50 in data set [2] (setting [3]) is 0.3 ± 0.2 nM.
As for “RNA-OMe: 2′-methylated RNA 10mer ASO, sequence CTCATACTCT, targeting acpP −5 to +5 (all 2'-O-methyl, backbone and T or U not given here)”, in the data set on Salmonella, the “Antibacterial activity (MIC)” value is listed as above 10 µM and the “Effect of KFF-ASO conjugates” value is “lacked any antibacterial activity”. In addition, the “Shift of target mRNA in EMSA (in words)” value in data set [1] is “did not interact with the target mRNA at any of the concentrations tested”. Further, the “EC50 of binding to target mRNA” value in data set [2] is “lower-mid nanomolar range”. Further, in data set [2] (setting [3]), the EC50 was determined as 4 ± 0.2 nM.

The values above are taken from PMC11098465, “A comparative analysis of peptide-delivered antisense antibiotics using diverse nucleotide mimics” (RNA, 2024).
